Laboratory results reported in patent US20080220416A1, “Compositions for Inhibiting Cell Growth and Inducing Apoptosis in Cancer Cells and Methods of Use Thereof” (THE BOARD OF TRUSTEES OF THE UNIVERSITY OF ILLINOI, priority 2004, published 2008).
Peptide text beside a SMILES is read from it. * marks the point of attachment. Cbz = O=C(OCc1ccccc1)*

Tests used:
Type in all cases: cell-based, human
melanoma cell lines = experiment: Proteasome inhibitors, apoptosis of melanoma cell lines (Annexin V FITC flow cytometry); settings: RJ002L, MG012, C8161, MUM2B, SK-MeI-28; 1-10 μM; 24 hrs
Description: (§1) The proteasome inhibitors lactacystin, MG-132, and bortezomib were evaluated for the ability to induce apoptosis in malignant melanoma cell lines (n=3) including an early passage line, RJ002L. MG-132 was obtained from Calbiochem (La Jolla, Calif.) and dissolved in DMSO. Lactacystin was purchased from Sigma Chemical Co. (St. Louis, Mo.) and dissolved in PBS. Bortezomib was obtained from a pharmacy as VELCADE (bortezomib) for Injection from a single use vial for intravenous use only (Millennium Pharmaceuticals, Cambridge, Mass.). A cell line with wild-type p53 (RJ002L) and two melanoma cell lines with mutant p53 alleles (C8161 and MUM2B) were included in this study. Two additional melanoma cell lines were also used: cutaneous SK-MeI-28 cells and primary, early passage MG012 cells. In addition, five normal melanocyte culture cell lines (MC-005, MC-006, MC-008, MC-009 and MC-011) were examined. Prior to testing, the melanoma cell lines were maintained in RPMI supplemented with 10% FBS. Normal human melanocytes were isolated from neonatal foreskins as previously described (Qin J et al., 2004, Mol Cancer Ther 3:895-902, 2004) and cultured with medium 154 containing growth supplements (Cascade Biologics, Portland, Oreg.).
To assess the effect of proteasome inhibitors on the cell lines, the cells were grown in suitable culture media as described above. Highly proliferating cells (i.e., cells that had reached approximately 30% confluency) were exposed to the inhibitors as described below. The culture media was replenished with media containing proteasome inhibitors at various concentrations and the cells were incubated for 24 hours prior to harvesting the cells for further analysis.
(§2) Following treatment with the proteasome inhibitors, the melanoma and melanocyte cell cultures were assayed for apoptotic cells using the APO TARGET Annexin V FITC staining kit (Biosource, Camarillo, Calif.) according to the manufacturer's instructions followed by flow cytometric analysis using FACScaliber (Becton Dickinson, Palo Alto, Calif.) as described in Qin, J. et al., 2001, Nat Med 7: 385-386. In some cases, cell cycle and apoptosis analysis was measured using propidium iodide staining and flow cytometry as described. Cells with DNA content less than the G0 amount of untreated cells were considered apoptotic. For cell analysis, DNA histograms were analyzed using MultiCycle for Windows (Phoenix Flow Systems, San Diego, Calif.) as described in Denning, M. F. et al., 1998, J Biol Chem 273: 29995-30002.

NOXA [1] = experiment: Western blot of NOXA after proteasome inhibitors in melanoma cells; settings: RJ002L, C8161, MUM2B; 1 μM or 10 μM; 18 hrs
Source text: (§3) A panel of melanoma cells were used to assess the effect of bortezomib on pro-apoptotic proteins. RJ002L, C8161, MUM2B and SK-MeI-28 melanoma cells, as well as two normal melanocyte cultures (MC-010 and MC-012) were examined. Prior to testing, the RJ002L melanoma cell lines were maintained in RPMI supplemented with 10% FBS. Late passage melanoma cell lines (C8161, MUM2B and SK-Me1028) were utilized as previously described (Welch D et al., 1991, Int J Cancer 47:227-237; Bittner M et al., 2000, Nature 406:536-540). Normal human melanocytes were isolated from neonatal foreskins and cultured as previously described (Qin J et al., 2004, Mol Cancer Ther 3:895-902). Proliferating cells were examined by Western blot analysis before and after 18 hrs of exposure to bortezomib (1 μM). Antibodies were obtained as follows: Bad (SC-8044), Bcl-2 (SC-7382), Bcl-xL (SC-634), Mcl-1 (SC-819), Bak (SC-832) from Santa Cruz Biotechnology (Santa Cruz, Calif.); NOXA (OP180) from Calbiochem; Bid, Bim and PUMA from Cell Signaling (Beverly, Mass.); BAX from Upstate (Charlottesville, Va.); and β-actin from ICN (Irvine, Calif.). For the Western blot analysis, whole cell extracts were prepared as previously described (Denning M et al., 1998, J Biol Chem 273:29995-30002). Briefly, cells were harvested by scraping monolayers and washed with PBS. Cell pellets were resuspended in CHAPS buffers containing a protease inhibitor cocktail. Extracts were vigorously shaken at 4° C. for 15 min followed by centrifugation. Supernatants were collected and protein concentration determined using Bio-Rad reagent. Thirty to 50 microgram protein samples were resolved by SDS-polyacrylamide gel electrophoresis and transferred to polyvinylidene difluoride membrane by electroblotting. Membranes were probed with the various primary antibodies overnight at 4° C., followed by detection using ECL reagents (Amersham Pharmacia Biotech, Piscataway, N.J.) according to manufacturer's instructions.
(§4) Two other proteasome inhibitors, lactasytsin and MG-132, were tested for the ability to induce NOXA in melanoma cells and melanocytes. […]

normal melanocytes = experiment: Proteasome inhibitors, apoptosis of normal melanocyte cultures (Annexin V FITC flow cytometry); settings: MC-005, MC-006, MC-008; 24 hrs; 1, 5 or 10 μM
Description: as §1
To assess the effect of proteasome inhibitors on the cell lines, the cells were grown in suitable culture media as described above. […]
as §2, with “Cells with DNA content less than the G0 amount of untreated cells were considered apoptotic.” left out

NOXA [2] = experiment: Western blot of NOXA after proteasome inhibitors in normal melanocytes; settings: MC-004, MC-005, MC-006, MC-008; 1 μM or 10 μM; 18 hrs
Source text: as §3, §4

Notch-1 = experiment: Notch Western blot in MDA-MB231 cells; settings: MDA-MB231; 25 μM; 48 hours
Description: Notch silencing was confirmed by Western blot using commercial goat polyclonal antibodies from Santa Cruz Biotechnology to Notch-1 (C-20, Cat# sc-6014 S) and Notch-4 (C-19, Cat# sc-8644). Total cell lysates were prepared as follows: cells grown on 6 cm dishes were scraped in lysis buffer containing 1×PBS, 1% Nonidet P40, 0.5% deoxycholate, 0.1% SDS, freshly added aprotinin (45 μg/ml), phenylmethylsulfonyl fluoride (10 μg/ml), and sodium orthovanadate (10 μM). Lysates were sonicated 4 times for 5 seconds each, followed by 30 minutes incubation on ice. Lysates were centrifuged at 10,000 g for 20 minutes at 4° C. Supernatants were used as total cell lysates. Nuclear extracts were prepared as follows: 10,000,000 cells were pelleted, washed, and quickly frozen in a dry ice bath. Pellets were thawed by adding 100 μl of buffer 1 (10 mM HEPES, pH 7.9, 10 mM KCl, 1.5 mM MgCl2, 1 mM DTT). Nuclei were pelleted and lysed in 15 μl Buffer 2 (20 mM HEPES, pH7.9, 0.4 M NaCl, 1.5 mM MgCl2, 25% glycerol, 0.2 mM EDTA, 1 mM DTT, and 0.5 mM PMSF). Lysates were diluted in 50-70 μl Buffer 3 (20 mM HEPES, pH 7.9, 50 mM KCl, 20% glycerol, 0.2 mM EDTA, 1 mM DTT, 0.5 mM PMSF). Protein concentrations were estimated using the BCA protein assay (Pierce). Supernatants were boiled in reducing SDS sample buffer (Novex). Twenty μg protein per lane were run on a 3-8% Tris acetate gel (Invitrogen) in Tris Acetate Reducing Running Buffer (Novex). Protein bands were transferred onto PVDF membranes (BioRad) using transfer buffer (Novex). Membranes were then blocked overnight at 4° C. in 2% blocking solution in TBS (Roche). Primary antibodies were diluted in 2% Boehringer blocking solution (total volume 5 ml). Membranes were incubated for one hour at room temperature with shaking, then washed 6 times for 10 minutes each in TBS wash buffer. Membranes were incubated in secondary antibody in 2% of blocking solution for 30 minutes, then washed 6 times for 10 minutes each at RT in wash buffer. Bands were detected with chemiluminescent reagent (Roche) according to the manufacturer's directions. […]

[3] = system: MDA-MB231 breast cancer cells; experiment: Cytotoxicity and growth assay in MDA-MB231 breast cancer cells (SRB, TCA-precipitated protein); settings: MDA-MB231; up to 3 days
Description: An invasive, estrogen-independent breast cancer cell line that spontaneously expresses high levels of Notch-1 and -4, MDA-MB231, and normal human breast cells were used to investigate whether inhibition of Notch activation or expression affects the biological behavior of breast cancer cells. Human Mammary Epithelial Cells (HMEC) were purchased from Clonetics and cultured in mammary epithelial cell basal medium (MEBM) supplemented with 52 μg/ml Bovine Pituitary Extract […], […] human recombinant Epidermal Growth Factor (hEGF), 5 μg/ml insulin, 0.5 μg/ml Hydrocortisone, 50 μg/ml Gentamicin and 50 μg/ml Amphotericin-B. MDA-MB231 (ATCC, Rockville, Md.) were cultured in DMEM medium with 10% FBS. Notch expression in HMEC and MDA-MB231 cells was silenced using highly specific RNAi. Double-stranded synthetic 21-mer RNA oligonucleotides (siRNAs) were purchased from Dharmacon (Lafayette, Colo.). […] Sequence specificity was determined by BLAST searches which determined the uniqueness of the sequences. Transfection of siRNAs was performed using Oligofectamine (Invitrogen) as recommended by the siRNA manufacturer (Dharmacon). Transfection efficiency was optimized and followed on parallel wells using DNA double stranded oligos of identical sequence to the siRNAs, labeled with biotin on one strand. Transfected cells were identified by Streptavidin-horseradish peroxidase staining (Vectastain) and counted. Transfection efficiencies around 80% were routinely obtained.
Cytotoxicity and growth of transfected cells were estimated by a standard assay used for cancer drug screening, through the total amount of TCA-precipitated cell proteins after drug treatment (Likhitwitayawuid, K et al., 1993, J Nat Prod 56:30-38): 200 μl of cell suspension (10^5 cells/ml) were added to each well in a 96-well plate. After incubation at, 37° C., in 5% CO2 (30 minutes to 72 hours depending on the time course chosen), 50 μl 50% trichloroacetic acid was added to each well. After incubation at 4° C. for 1 hour, precipitates were washed with water 4-5 times and air dried overnight. One hundred μl of SRB solution (0.4% sulforhodamine B in 1% acetic acid, filtered before use) was added to each well for 30 minutes. Wells were washed with 1% acetic acid 4-5 times and air dried. Two hundred μl 10 mM Tris base was added to each well. Plates were shaken for 5-10 minutes and OD at 490 nm (OD490) was recorded via ELISA reader. To assay matrix invasion, 300 μl of cell suspension (10^6 cells/mL in serum-free medium) were added to invasion inserts (BioCoat Matrigel Invasion Chambers, Becton Dickinson, Bedford, Mass.) and incubated for 22 hours at 37° C., 5% CO2. […] After removal of the non-invading cells from the interior of the inserts, stained invading cells were lysed in 10% acetic acid and OD595 was determined. […]

[4] = system: MDA-MB231 breast cancer cells; experiment: Extracellular matrix invasion of MDA-MB231 cells (Matrigel Invasion Chambers); settings: 25 μM, 22 h
Description: Cytotoxicity and growth of transfected cells were estimated by a standard assay used for cancer drug screening, through the total amount of TCA-precipitated cell proteins after drug treatment (Likhitwitayawuid, K et al., 1993, J Nat Prod 56:30-38): 200 μl of cell suspension (10^5 cells/ml) were added to each well in a 96-well plate. After incubation at, 37° C., in 5% CO2 (30 minutes to 72 hours depending on the time course chosen), 50 μl 50% trichloroacetic acid was added to each well. After incubation at 4° C. for 1 hour, precipitates were washed with water 4-5 times and air dried overnight. One hundred μl of SRB solution (0.4% sulforhodamine B in 1% acetic acid, filtered before use) was added to each well for 30 minutes. Wells were washed with 1% acetic acid 4-5 times and air dried. Two hundred μl 10 mM Tris base was added to each well. Plates were shaken for 5-10 minutes and OD at 490 nm (OD490) was recorded via ELISA reader. To assay matrix invasion, 300 μl of cell suspension (10^6 cells/mL in serum-free medium) were added to invasion inserts (BioCoat Matrigel Invasion Chambers, Becton Dickinson, Bedford, Mass.) and incubated for 22 hours at 37° C., 5% CO2. Cells were stained with 0.9% crystal violet in 10% ethanol for 20 minutes. Inserts were dipped in water several times and air dried. After removal of the non-invading cells from the interior of the inserts, stained invading cells were lysed in 10% acetic acid and OD595 was determined.
Notch silencing was confirmed by Western blot as described above in Example 15 using commercial goat polyclonal antibodies from Santa Cruz Biotechnology to Notch-1 (C-20, Cat# sc-6014 S). For the Western blot analyses, MDA-MB231 cells were treated with 25 μM IL-X for 48 h or with 0.5, 1 or 2 μM z-Leu-Leu-Nle-CHO for 24 h. Cytotoxicity and matrix invasion assays were performed as described above in Example 15. For the cytotoxicity assays, MDA-MB231 cells were treated with […] IL-X for up to 3 days or with 0-20 μM z-Leu-Leu-Nle-CHO for up to 4 days. […]

Structure (SMILES) | apoptotic response to increasing concentrations (melanoma cell lines) | NOXA induction (NOXA [1]) | cells undergoing apoptosis (normal melanocytes) | NOXA induction (NOXA [2]) | molecular forms of Notch-1 (Notch-1) | concentration above which cytotoxic [3] | in vitro matrix invasion [4]
CC(=O)N[C@@H](CSC(=O)[C@]1([C@@H](O)C(C)C)NC(=O)[C@H](C)[C@@H]1O)C(=O)O [lactacystin] | significantly enhanced apoptotic responses | induced high NOXA levels | no more than 10% | no induction of NOXA in any of the normal melanocytes | – | – | –
CCC(C)C(NC(=O)OCc1ccccc1)C(=O)NC(C=O)CC(C)C (stereo not drawn) [IL-X, cbz-IL-CHO] (Cbz-Ile-Leu-aldehyde; configuration not given here) | – | – | – | – | apparent reduction in all molecular forms of Notch-1 | above 100 μM | significantly reduced in vitro matrix invasion
